# Values of other authors as cited in patent publication US8568753B2, “Delivery system” (Starpharma Pty Limited, priority 2005, dated 2013).
# Tested on: herpes simplex virus type 2 (HSV-2), Strain G
# Conditions: previous studies
substance,measurement,setting,value
nonoxynol-9,relative susceptibility to HSV-2 infection vs control animals,,29.7 times
same,animals infected with HSV-2,low-dose inoculum,29 out of 42
